From publication PMC3156232, “Rapid Probing of Biological Surfaces with a Sparse-Matrix Peptide Library” (PLoS ONE, 2011)
“Also recorded” adds a separate entry of the source.

Assays:
[1] = Tooth section binding by confocal laser scanning microscopy; conditions: sectioned human teeth, FAM-labeled peptide, CLSM; result in words
Excerpt: For tooth binding assays, FAM-labeled pilot matrix peptides were collected into four pools of 9 peptides each. Peptides were screened by exposing pools to sections taken from a collection of anonymous human teeth (extracted during normal clinical practice), followed by visualization of the samples by Confocal Laser Scanning Microscopy (CLSM).

[2] = system: S. aureus; test: Fluorescence microscopy screening of FAM-labeled peptides against immobilized cells; format: binding, Staphylococcus aureus; conditions: FAM-labeled peptide 25 µM, 10 minutes, washed, result in words
Description: (§1) Peptide samples were prepared at a concentration of 25 µM for screening. For bacterial and yeast binding assays, cells were grown overnight, washed, and immobilized in a polylysine-coated 96-well plate, except in the case of S. mutans biofilms, where 10^5 cells were inoculated into 400 µl of Todd Hewitt broth in 48-well plates and biofilms were grown anaerobically for 24 hr. FAM-labeled peptides were applied to immobilized cell, yeast, and bacterial cultures, incubated for 10 minutes and washed extensively to remove unbound peptide. Samples were visualized by fluorescence microscopy (Nikon E400). For each peptide, both brightfield and fluorescence images were collected with the manufacturer-supplied software (SPOT, Diagnostic Instruments, Sterling Heights, MI). Post-collection, the locations of cells and background regions were determined using the brightfield images; those regions were then selected in the fluorescence images for quantitation of pixel values for determination of relative fluorescence intensities using The GIMP (http://www.gimp.org), [33]. Due to the variation in the levels of binding of the peptide to the well, these values are represented as bacterial fluorescence/background fluorescence, in order to remove the effects of precipitation or nonspecific binding from the final measurement.

[3] = system: wild type M. xanthus; test: as above; format: binding, Myxococcus xanthus; conditions: FAM-labeled peptide 25 µM, 10 minutes, result in words
Description: as §1

[4] = system: wild type S. mutans (UA140); test: Fluorescence microscopy binding to S. mutans; set-up: species or system Streptococcus mutans; conditions: FAM-labeled peptide, result in words
Description: as §1

[5] = system: S. mutans gtfB mutant; test: Fluorescence microscopy binding to surface mutant; set-up: species or system Streptococcus mutans; conditions: FAM-labeled peptide, result in words
Description: as §1

AMQDAMNEM [Pilot Library E6]
Binding to tooth dentin [1]: bound selectively to dentin

AMKDAMERM [Pilot Library E4]
Binding to immobilized S. aureus cells (fluorescence staining) [2]: preferentially binds | Binding to wild-type M. xanthus cells (fluorescence staining) [3]: preferentially binds | Binding to tooth dentin [1]: no obvious binding | Binding to tooth enamel and enamel-proximal region of the dentino-enamel junction [1]: clear binding

IWHSWISTW [sma24]
Binding to wild type S. mutans [4]: good binding activity and specificity; also recorded: strong binding | Binding to S. mutans gtfB mutant unable to synthesize extracellular glucan [5]: reduced binding
